Target: human CXCR3A (Homo sapiens (Human), UniProt P49682)
Assay: FLIPR assay (inhibition of CXCL10-induced calcium signal)
Assay type: cell-based
Conditions: engineered CHO-K1 cells expressing human CXCR3A coupled to Galpha(16); Fluo-4-AM; CXCL10 agonist 20 nM; mean values where determined several times
Procedure, shortened: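 CHO-K1 cells expressing human CXCR3A coupled to Gα16 were loaded with Fluo-4-AM for 1 h in HBSS/20 mM Hepes pH 7.4 with probenecid. Compound was added, then CXCL10 (20 nM as dispensed). Baseline-subtracted peak fluorescence gave inhibition curves and IC50, averaged over repeats.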

Chain of human CXCR3A (P49682 whole entry): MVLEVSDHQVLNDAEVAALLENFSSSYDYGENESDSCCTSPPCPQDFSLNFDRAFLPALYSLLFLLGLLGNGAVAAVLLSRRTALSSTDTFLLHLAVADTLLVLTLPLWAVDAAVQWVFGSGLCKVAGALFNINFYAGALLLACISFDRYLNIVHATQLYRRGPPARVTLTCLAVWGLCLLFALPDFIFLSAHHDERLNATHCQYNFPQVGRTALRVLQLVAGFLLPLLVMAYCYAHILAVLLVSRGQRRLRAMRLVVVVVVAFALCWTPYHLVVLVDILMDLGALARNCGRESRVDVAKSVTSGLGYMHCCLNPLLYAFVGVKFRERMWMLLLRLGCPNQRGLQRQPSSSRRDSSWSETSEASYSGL

Row | IC50 [nM] | SMILES
1 | 34.4 | C[C@@H]1CN(c2cccc3c2CN(c2nc(-c4ccccc4)cs2)CC3)CCN1C(=O)Cn1cnc2cccnc21 [Example 124, 2-Imidazo[4,5-b]pyridin-3-yl-1-{(R)-2-methyl-4-[2-(4-phenyl-thiazol-2-yl)-1,2,3,4-tetrahydro-isoquinolin-8-yl]-piperazin-1-yl}-ethanone]
2 | 116 | C[C@@H]1CN(c2cccc3c2CN(C(=O)OCc2ccccc2)CC3)CCN1C(=O)Cn1cccn1 [Example 135, 8-[(R)-3-Methyl-4-(2-pyrazol-1-yl-acetyl)-piperazin-1-yl]-3,4-dihydro-1H-isoquinoline-2-carboxylic acid benzyl ester]
3 | 33.2 | Cc1nc(C)n(CC(=O)N2CCN(c3cccc4c3CN(C(=O)OCc3ccccc3)CC4)C[C@H]2C)n1 [Example 136, 8-{(R)-4-[2-(3,5-Dimethyl-[1,2,4]triazol-1-yl)-acetyl]-3-methyl-piperazin-1-yl}-3,4-dihydro-1H-isoquinoline-2-carboxylic acid benzyl ester]
4 | 9.1 | O=C(Cn1cnc2cccnc21)N1CCN(c2cccc3c2CN(C(=O)OCc2ccccc2)CC3)CC1 [Example 137, 8-[4-(2-Imidazo[4,5-b]pyridin-3-yl-acetyl)-piperazin-1-yl]-3,4-dihydro-1H-isoquinoline-2-carboxylic acid benzyl ester]
5 | 465 | C[C@@H]1CN(c2cccc3c2CN(Cc2ccc(Cl)cc2)CC3)CCN1C(=O)Cn1cnc2cccnc21 [Example 143, 1-{(R)-4-[2-(4-Chloro-benzyl)-1,2,3,4-tetrahydro-isoquinolin-8-yl]-2-methyl-piperazin-1-yl}-2-imidazo[4,5-b]pyridin-3-yl-ethanone]
6 | 85.7 | C[C@@H]1CN(c2ccc(Br)c3c2CN(C(=O)OCc2ccccc2)CC3)CCN1C(=O)Cn1cnc2cccnc21 [Example 144, 5-Bromo-8-[(R)-4-(2-imidazo[4,5-b]pyridin-3-yl-acetyl)-3-methyl-piperazin-1-yl]-3,4-dihydro-1H-isoquinoline-2-carboxylic acid benzyl ester]
7 | 25.6 | C[C@@H]1CN(c2ccc(C(F)(F)F)c3c2CN(C(=O)OCc2ccccc2)CC3)CCN1C(=O)Cn1cnc2cccnc21 [Example 145, 8-[(R)-4-(2-Imidazo[4,5-b]pyridin-3-yl-acetyl)-3-methyl-piperazin-1-yl]-5-trifluoromethyl-3,4-dihydro-1H-isoquinoline-2-carboxylic acid benzyl ester]
8 | 15.6 | C[C@@H]1CN(c2ccc(C#N)c3c2CN(C(=O)OCc2ccccc2)CC3)CCN1C(=O)Cn1cnc2cccnc21 [Example 146, 5-Cyano-8-[(R)-4-(2-imidazo[4,5-b]pyridin-3-yl-acetyl)-3-methyl-piperazin-1-yl]-3,4-dihydro-1H-isoquinoline-2-carboxylic acid benzyl ester]

Second part, the compound before the results:

Row | SMILES | IC50 [nM]
9 | COc1cncc(N2CCc3cccc(N4CCN(C(=O)Cn5cnc6cccnc65)[C@H](C)C4)c3C2)n1 [Example 120, 2-Imidazo[4,5-b]pyridin-3-yl-1-{(R)-4-[2-(6-methoxy-pyrazin-2-yl)-1,2,3,4-tetrahydro-isoquinolin-8-yl]-2-methyl-piperazin-1-yl}-ethanone] | 2.03
10 | COc1nc(OC)nc(N2CCc3cccc(N4CCN(C(=O)Cn5cnc6cccnc65)[C@H](C)C4)c3C2)n1 [Example 121, 1-{(R)-4-[2-(4,6-Dimethoxy-[1,3,5]triazin-2-yl)-1,2,3,4-tetrahydro-isoquinolin-8-yl]-2-methyl-piperazin-1-yl}-2-imidazo[4,5-b]pyridin-3-yl-ethanone] | 3.39
11 | COc1nccc(N2CCc3cccc(N4CCN(C(=O)Cn5cnc6cccnc65)[C@H](C)C4)c3C2)n1 [Example 122, 2-Imidazo[4,5-b]pyridin-3-yl-1-{(R)-4-[2-(2-methoxy-pyrimidin-4-yl)-1,2,3,4-tetrahydro-isoquinolin-8-yl]-2-methyl-piperazin-1-yl}-ethanone] | 27.9
12 | CCOc1ncc(N2CCc3cccc(N4CCN(C(=O)Cn5cnc6cccnc65)[C@H](C)C4)c3C2)cn1 [Example 123, 1-{(R)-4-[2-(2-Ethoxy-pyrimidin-5-yl)-1,2,3,4-tetrahydro-isoquinolin-8-yl]-2-methyl-piperazin-1-yl}-2-imidazo[4,5-b]pyridin-3-yl-ethanone] | 4.71
13 | Cc1nc(C)n(CC(=O)N2CCN(c3cccc4c3CN(c3cnc(C(F)(F)F)nc3)CC4)C[C@H]2C)n1 [Example 125, 2-(3,5-Dimethyl-[1,2,4]triazol-1-yl)-1-{(R)-2-methyl-4-[2-(2-trifluoromethyl-pyrimidin-5-yl)-1,2,3,4-tetrahydro-isoquinolin-8-yl]-piperazin-1-yl}-ethanone] | 47.4
14 | Cc1nc(C)n(CC(=O)N2CCN(c3cccc4c3CN(c3cnc(C5CC5)nc3)CC4)C[C@H]2C)n1 [Example 126, 1-{(R)-4-[2-(2-Cyclopropyl-pyrimidin-5-yl)-1,2,3,4-tetrahydro-isoquinolin-8-yl]-2-methyl-piperazin-1-yl}-2-(3,5-dimethyl-[1,2,4]triazol-1-yl)-ethanone] | 3.98
15 | CCOc1ncc(N2CCc3cccc(N4CCN(C(=O)Cn5nc(C)nc5C)[C@H](C)C4)c3C2)cn1 [Example 127, 2-(3,5-Dimethyl-[1,2,4]triazol-1-yl)-1-{(R)-4-[2-(2-ethoxy-pyrimidin-5-yl)-1,2,3,4-tetrahydro-isoquinolin-8-yl]-2-methyl-piperazin-1-yl}-ethanone] | 33.1
16 | CCOc1ncc(N2CCc3cccc(N4CCN(C(=O)Cn5nc(C)cc5C)[C@H](C)C4)c3C2)cn1 [Example 128, 2-(3,5-Dimethyl-pyrazol-1-yl)-1-{(R)-4-[2-(2-ethoxy-pyrimidin-5-yl)-1,2,3,4-tetrahydro-isoquinolin-8-yl]-2-methyl-piperazin-1-yl}-ethanone] | 7.94
17 | CCOc1ncc(N2CCc3c(F)ccc(N4CCN(C(=O)Cn5cnc6cccnc65)[C@H](C)C4)c3C2)cn1 [Example 129, 1-{(R)-4-[2-(2-Ethoxy-pyrimidin-5-yl)-5-fluoro-1,2,3,4-tetrahydro-isoquinolin-8-yl]-2-methyl-piperazin-1-yl}-2-imidazo[4,5-b]pyridin-3-yl-ethanone] | 3.1
18 | CCOc1ncc(N2CCc3c(F)ccc(N4CCN(C(=O)Cn5nc(C)cc5C)[C@H](C)C4)c3C2)cn1 [Example 130, 2-(3,5-Dimethyl-pyrazol-1-yl)-1-{(R)-4-[2-(2-ethoxy-pyrimidin-5-yl)-5-fluoro-1,2,3,4-tetrahydro-isoquinolin-8-yl]-2-methyl-piperazin-1-yl}-ethanone] | 5.7
19 | CCOc1ncc(N2CCc3c(F)ccc(N4CCN(C(=O)Cn5nc(C)nc5C)[C@H](C)C4)c3C2)cn1 [Example 131, 2-(3,5-Dimethyl-[1,2,4]triazol-1-yl)-1-{(R)-4-[2-(2-ethoxy-pyrimidin-5-yl)-5-fluoro-1,2,3,4-tetrahydro-isoquinolin-8-yl]-2-methyl-piperazin-1-yl}-ethanone] | 24.3
20 | Cc1nc(C)n(CC(=O)N2CCN(c3ccc(F)c4c3CN(c3cnc(C(F)(F)F)nc3)CC4)C[C@H]2C)n1 [Example 132, 2-(3,5-Dimethyl-[1,2,4]triazol-1-yl)-1-{(R)-4-[5-fluoro-2-(2-trifluoromethyl-pyrimidin-5-yl)-1,2,3,4-tetrahydro-isoquinolin-8-yl]-2-methyl-piperazin-1-yl}-ethanone] | 58.9
21 | Cc1nc(C)n(CC(=O)N2CCN(c3ccc(F)c4c3CN(c3cnc(C5CC5)nc3)CC4)C[C@H]2C)n1 [Example 133, 1-{(R)-4-[2-(2-Cyclopropyl-pyrimidin-5-yl)-5-fluoro-1,2,3,4-tetrahydro-isoquinolin-8-yl]-2-methyl-piperazin-1-yl}-2-(3,5-dimethyl-[1,2,4]triazol-1-yl)-ethanone] | 5.42
22 | CCOc1ncc(N2CCc3cc(C(F)(F)F)cc(N4CCN(C(=O)Cn5cnc6cccnc65)[C@H](C)C4)c3C2)cn1 [Example 134, 1-{(R)-4-[2-(2-Ethoxy-pyrimidin-5-yl)-6-trifluoromethyl-1,2,3,4-tetrahydro-isoquinolin-8-yl]-2-methyl-piperazin-1-yl}-2-imidazo[4,5-b]pyridin-3-yl-ethanone] | 52.1
23 | O=C(Cn1ccc2cccnc21)N1CCN(c2cccc3c2CN(C(=O)OCc2ccccc2)CC3)CC1 [Example 138, 8-[4-(2-Pyrrolo[2,3-b]pyridin-1-yl-acetyl)-piperazin-1-yl]-3,4-dihydro-1H-isoquinoline-2-carboxylic acid benzyl ester] | 12.4
24 | Cn1c(=O)n(CC(=O)N2CCN(c3cccc4c3CN(C(=O)OCc3ccccc3)CC4)CC2)c2ccccc21 [Example 139, 8-{4-[2-(3-Methyl-2-oxo-2,3-dihydro-benzoimidazol-1-yl)-acetyl]-piperazin-1-yl}-3,4-dihydro-1H-isoquinoline-2-carboxylic acid benzyl ester] | 21.7
25 | Cn1c(=O)n(CC(=O)N2CCN(c3cccc4c3CN(C(=O)c3ccccc3)CC4)CC2)c2ccccc21 [Example 140, 1-{2-[4-(2-Benzoyl-1,2,3,4-tetrahydro-isoquinolin-8-yl)-piperazin-1-yl]-2-oxo-ethyl}-3-methyl-1,3-dihydro-benzoimidazol-2-one] | 51.2
26 | Cn1c(=O)n(CC(=O)N2CCN(c3cccc4c3CN(C(=O)Cc3ccccc3)CC4)CC2)c2ccccc21 [Example 141, 1-Methyl-3-{2-oxo-2-[4-(2-phenylacetyl-1,2,3,4-tetrahydro-isoquinolin-8-yl)-piperazin-1-yl]-ethyl}-1,3-dihydro-benzoimidazol-2-one] | 190
27 | O=C(Cn1cnc2cccnc21)N1CCN(c2cccc3c2CN(S(=O)(=O)Cc2ccccc2)CC3)CC1 [Example 142, 2-Imidazo[4,5-b]pyridin-3-yl-1-[4-(2-phenylmethanesulfonyl-1,2,3,4-tetrahydro-isoquinolin-8-yl)-piperazin-1-yl]-ethanone] | 65.4

Source: patent US9951063B2, “8-(piperazin-1-yl)-1,2,3,4-tetrahydro-isoquinoline derivatives” (IDORSIA PHARMACEUTICALS LTD, priority 2014, dated 2018)
